Data set [1] can be described thus: Pharmacokinetic evaluation: edaravone in plasma after single oral administration to rats. Format: in vivo, SD (Sprague-Dawley) rats. Particulars: SD rats. The procedure: The pharmacokinetic test of the compounds of Examples and Reference Example was carried out as follows. That is, after a single oral administration of the test compound to SD (Sprague-Dawley) rats, the efficacy of the compound of the present invention was verified by tracking the kinetics of the edaravone released into the blood by metabolic processes and comparing it with a standard substance. Specifically, edaravone, a standard substance, was administered intravenously and orally, respectively, and the test compounds were administered orally. Then, the concentration of edaravone in blood was evaluated. The standard substance and the test compounds were each prepared in the same manner and then administered to rats at a dose of 0.1 mmol/kg, and blood was collected at a predetermined time and plasma was separated. Analysis of the drug was performed using HPLC (XBridge column Cis, Waters, mobile phase 0.1% formic acid:acetonitrile (30:70, %/%)) and MS/MS (ESI positive, MRM). Each commercial standard solution was mixed in a ratio of 9:1 with rat plasma to prepare and calibrate at concentrations of 5, 50, 100, 500, 1000 and 5000 ng/ml. In addition, the QC sample was prepared by mixing the rat plasma and the standard solution for QC at a ratio of 9:1, and at concentrations of 100, 750 and 2,500 ng/ml. In the pretreatment method, 100 μl of plasma sample was transferred to a tube for centrifugation, 10 μl of an internal standard solution and 300 μl of methanol were added, followed by mixing for about 30 seconds. The tube was centrifuged at 3,000×g (4° C.) for about 5 minutes, the supernatant was taken and transferred to an LC vial, and then injected into the instrument. In addition, the concentration of an active ingredient, that is, edaravone, in rat plasma was quantified by applying a previously validated analysis method. For pharmacokinetic parameters, WinNonlin 5.2 (Pharsight, USA) program was used, and AUC0-t, AUC0-∞, Cmax, Tmax, and t1/2 were calculated by noncompartment modeling (best fit). The pharmacokinetic parameter results were expressed as mean and standard deviation (SD), and statistically processed using the SPSS program (Statistical Package for the Social Sciences, 10.0K, USA).

For data set [2] the following is noted: cited from earlier work.
The conditions of data set [3]: in vivo; cited from earlier work.
For data set [4] the following is noted: cited from earlier work. This is another data set of the same source.

Converted amounts (≈) assume the structure as drawn. Structures can show the parent of a compound that is named as a salt.

For `Cc1cc(OC(=O)N2CCN(C(=O)[C@@H](N)CCCCN)CC2)n(-c2ccccc2)n1` [Example 19, (S)-3-methyl-1-phenyl-1H-pyrazol-5-yl 4-(2,6-diaminohexanoyl)piperazine-1-carboxylate Dihydrochloride], the “oral bioavailability (in words)” value in data set [1] is listed as “excellent”.

As usually defined, the solubility is the dissolved amount per volume that the medium holds. With `CC1=NN(c2ccccc2)C(=O)C1` [edaravone], the solubility in data set [2] is 1.85 mg/mL (≈ 10.6 mM). In addition, in data set [3], the “oral absorption rate (Fabs)” value is on record as 5.23%. For the same compound, in data set [4], the “permeability (Peff)” value is 3.18 nm/s.

Consider `Cc1cc(OC(=O)N2CCN(C(=O)[C@@H](N)C(C)(C)C)CC2)n(-c2ccccc2)n1.Cl` [Example 15, (S)-3-methyl-1-phenyl-1H-pyrazol-5-yl 4-(2-amino-3,3-dimethylbutanoyl)piperazine-1-carboxylate Hydrochloride], for which the “oral bioavailability (in words)” value in data set [1] was “excellent”.

Consider `Cc1cc(OC(=O)N2CCN(C(=O)[C@@H](N)C(C)C)CC2)n(-c2ccccc2)n1.Cl` [Example 10, (S)-3-methyl-1-phenyl-1H-pyrazol-5-yl 4-(2-amino-3-methylbutanoyl)piperazine-1-carboxylate Hydrochloride], for which, in data set [1], the “oral bioavailability (in words)” value is “excellent”.

For `Cc1cc(OC(=O)N2CCN(C(=O)[C@@H](N)C(C)C)[C@@H](C)C2)n(-c2ccccc2)n1.Cl` [Example 14, (S)-3-methyl-1-phenyl-1H-pyrazol-5-yl 4-((S)-2-amino-3-methylbutanoyl)-3-methylpiperazin-1-carboxylate Hydrochloride], the “oral bioavailability (in words)” value in data set [1] was “excellent”.

The values above are taken from US11427547B2, “Edaravone prodrug compound and pharmaceutical use thereof in treatment or alleviation of neurodegenerative or motor neuron disease” (J2H BIOTECH INC., priority 2018, dated 2022).
